Assay results as given in patent US10081624B2, “Heterocyclic compound” (Takeda Pharmaceutical Company Limited, priority 2014, dated 2018).

Target: T1, HDAC6 enzyme (Homo sapiens, UniProt Q9UBN7)
T1 construct: prepared by transducing full length HDAC1 and HDAC6 genes into Sf-9 insect cells; GST; purchased SignalChem; host or cells: Sf-9 insect cells
T1 sequence (Q9UBN7 1-1215): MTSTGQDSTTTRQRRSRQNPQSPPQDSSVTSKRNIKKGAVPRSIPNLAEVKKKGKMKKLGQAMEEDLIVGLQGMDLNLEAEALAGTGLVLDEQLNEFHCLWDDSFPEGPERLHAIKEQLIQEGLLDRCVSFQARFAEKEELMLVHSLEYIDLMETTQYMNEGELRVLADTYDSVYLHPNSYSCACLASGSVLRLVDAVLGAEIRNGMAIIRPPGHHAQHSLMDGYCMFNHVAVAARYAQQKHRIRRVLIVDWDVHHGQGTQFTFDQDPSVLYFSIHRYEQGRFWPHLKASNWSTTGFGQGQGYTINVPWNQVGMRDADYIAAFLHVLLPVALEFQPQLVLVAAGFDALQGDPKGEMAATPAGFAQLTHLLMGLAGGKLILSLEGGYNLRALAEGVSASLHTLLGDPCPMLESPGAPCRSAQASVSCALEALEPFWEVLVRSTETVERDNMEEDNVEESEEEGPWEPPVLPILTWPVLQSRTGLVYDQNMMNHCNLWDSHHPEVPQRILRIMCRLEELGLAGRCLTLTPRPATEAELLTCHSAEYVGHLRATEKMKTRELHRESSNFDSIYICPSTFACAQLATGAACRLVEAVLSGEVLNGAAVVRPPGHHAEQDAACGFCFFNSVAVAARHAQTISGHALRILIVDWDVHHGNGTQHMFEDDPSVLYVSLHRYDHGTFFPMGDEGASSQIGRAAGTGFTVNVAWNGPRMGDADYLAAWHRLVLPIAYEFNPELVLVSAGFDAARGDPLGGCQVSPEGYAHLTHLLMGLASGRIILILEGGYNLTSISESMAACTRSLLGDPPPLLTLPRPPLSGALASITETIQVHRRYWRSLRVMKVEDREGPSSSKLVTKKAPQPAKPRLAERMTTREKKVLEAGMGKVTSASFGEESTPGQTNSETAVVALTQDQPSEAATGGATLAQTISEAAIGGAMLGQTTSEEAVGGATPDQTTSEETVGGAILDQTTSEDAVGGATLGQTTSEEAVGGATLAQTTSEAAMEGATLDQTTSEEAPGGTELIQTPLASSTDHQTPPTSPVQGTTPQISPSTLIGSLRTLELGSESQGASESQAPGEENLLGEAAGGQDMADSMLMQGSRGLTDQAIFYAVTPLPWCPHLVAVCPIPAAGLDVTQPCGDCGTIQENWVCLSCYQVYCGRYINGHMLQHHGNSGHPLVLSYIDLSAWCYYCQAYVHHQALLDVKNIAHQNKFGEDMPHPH
Assay: HDAC6 enzyme inhibitory assay (HDAC-Glo I/II Assay kit)
Format: biochemical
Conditions: 1 μM test compound; read-out: HDAC6 inhibitory rate (%) (1 μM)
In short: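 Luminescent HDAC-Glo I/II read-out after 20 min room-temperature reaction with substrate-developer, following a 60 min room-temperature enzyme–compound preincubation. Enzymes: full-length HDAC1 or HDAC6 from Sf-9 cells, GST-purified; buffer pH 7.5 Tris with NaCl, glutathione, 0.01% Tween-20. No-enzyme wells defined 100% inhibition.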

Row | inhibition at 1 µM | SMILES
1 | 92% | O=C(NCC1COCCN1C(=O)c1ccccn1)c1ccc(-c2noc(C(F)(F)F)n2)s1 (stereo not drawn) [Example 224, N-((4-(pyridin-2-ylcarbonyl)morpholin-3-yl)methyl)-5-(5-(trifluoromethyl)-1,2,4-oxadiazol-3-yl)thiophene-2-carboxamide]
2 | 92% | O=C(NCC1COCCN1C(=O)c1cccnc1)c1ccc(-c2noc(C(F)(F)F)n2)s1 (stereo not drawn) [Example 225, N-((4-(pyridin-3-ylcarbonyl)morpholin-3-yl)methyl)-5-(5-(trifluoromethyl)-1,2,4-oxadiazol-3-yl)thiophene-2-carboxamide]
3 | 95% | O=C(NCC1COCCN1C(=O)c1ccncc1)c1ccc(-c2noc(C(F)(F)F)n2)s1 (stereo not drawn) [Example 226, N-((4-isonicotinoylmorpholin-3-yl)methyl)-5-(5-(trifluoromethyl)-1,2,4-oxadiazol-3-yl)thiophene-2-carboxamide]
4 | 91% | Cc1cc(C(=O)N2CCOCC2CNC(=O)c2ccc(-c3noc(C(F)(F)F)n3)s2)ccn1 (stereo not drawn) [Example 227, N-((4-(2-methylisonicotinoyl)morpholin-3-yl)methyl)-5-(5-(trifluoromethyl)-1,2,4-oxadiazol-3-yl)thiophene-2-carboxamide]
5 | 77% | Cn1ccnc1C(=O)N1CCOCC1CNC(=O)c1ccc(-c2noc(C(F)(F)F)n2)s1 (stereo not drawn) [Example 228, N-((4-((1-methyl-1H-imidazol-2-yl)carbonyl)morpholin-3-yl)methyl)-5-(5-(trifluoromethyl)-1,2,4-oxadiazol-3-yl)thiophene-2-carboxamide]
6 | 97% | Cn1nccc1C(=O)N1CCOCC1CNC(=O)c1ccc(-c2noc(C(F)(F)F)n2)s1 (stereo not drawn) [Example 229, N-((4-((1-methyl-1H-pyrazol-5-yl)carbonyl)morpholin-3-yl)methyl)-5-(5-(trifluoromethyl)-1,2,4-oxadiazol-3-yl)thiophene-2-carboxamide]
7 | 88% | Cc1cc(C(=O)N2CCOCC2CNC(=O)c2ccc(-c3noc(C(F)(F)F)n3)s2)n(C)n1 (stereo not drawn) [Example 230, N-((4-((1,3-dimethyl-1H-pyrazol-5-yl)carbonyl)morpholin-3-yl)methyl)-5-(5-(trifluoromethyl)-1,2,4-oxadiazol-3-yl)thiophene-2-carboxamide]
8 | 92% | Cn1nc(C(F)(F)F)cc1C(=O)N1CCOCC1CNC(=O)c1ccc(-c2noc(C(F)(F)F)n2)s1 (stereo not drawn) [Example 231, N-((4-((1-methyl-3-(trifluoromethyl)-1H-pyrazol-5-yl)carbonyl)morpholin-3-yl)methyl)-5-(5-(trifluoromethyl)-1,2,4-oxadiazol-3-yl)thiophene-2-carboxamide]
9 | 78% | Cn1cc(C(=O)N2CCOCC2CNC(=O)c2ccc(-c3noc(C(F)(F)F)n3)s2)cn1 (stereo not drawn) [Example 233, N-((4-((1-methyl-1H-pyrazol-4-yl)carbonyl)morpholin-3-yl)methyl)-5-(5-(trifluoromethyl)-1,2,4-oxadiazol-3-yl)thiophene-2-carboxamide]
10 | 38% | Cn1cnc(C(=O)N2CCOCC2CNC(=O)c2ccc(-c3noc(C(F)(F)F)n3)s2)c1 (stereo not drawn) [Example 234, N-((4-((1-methyl-1H-imidazol-4-yl)carbonyl)morpholin-3-yl)methyl)-5-(5-(trifluoromethyl)-1,2,4-oxadiazol-3-yl)thiophene-2-carboxamide]
11 | 98% | Cc1ncsc1C(=O)N1CCOCC1CNC(=O)c1ccc(-c2noc(C(F)(F)F)n2)s1 (stereo not drawn) [Example 238, N-((4-((4-methyl-1,3-thiazol-5-yl)carbonyl)morpholin-3-yl)methyl)-5-(5-(trifluoromethyl)-1,2,4-oxadiazol-3-yl)thiophene-2-carboxamide]

Second part, the compound before the results:

Row | SMILES | inhibition at 1 µM
12 | O=C(NC[C@H]1COCCN1C(=O)Cc1cccs1)c1ccc(-c2noc(C(F)(F)F)n2)cn1 [Example 201, N-(((3S)-4-(2-thienylacetyl)morpholin-3-yl)methyl)-5-(5-(trifluoromethyl)-1,2,4-oxadiazol-3-yl)pyridine-2-carboxamide] | 95%
13 | O=C(NC[C@H]1COCCN1C(=O)CCc1ccccc1)c1ccc(-c2noc(C(F)(F)F)n2)cn1 [Example 203, N-(((3S)-4-(3-phenylpropanoyl)morpholin-3-yl)methyl)-5-(5-(trifluoromethyl)-1,2,4-oxadiazol-3-yl)pyridine-2-carboxamide] | 95%
14 | O=C(NCC1COCCN1C(=O)c1cccc(F)c1)c1ccc(-c2noc(C(F)(F)F)n2)s1 (stereo not drawn) [Example 212, N-((4-(3-fluorobenzoyl)morpholin-3-yl)methyl)-5-(5-(trifluoromethyl)-1,2,4-oxadiazol-3-yl)thiophene-2-carboxamide] | 97%
15 | O=C(NCC1COCCN1C(=O)c1cc(F)cc(F)c1)c1ccc(-c2noc(C(F)(F)F)n2)s1 (stereo not drawn) [Example 213, N-((4-(3,5-difluorobenzoyl)morpholin-3-yl)methyl)-5-(5-(trifluoromethyl)-1,2,4-oxadiazol-3-yl)thiophene-2-carboxamide] | 95%
16 | O=C(NCC1COCCN1C(=O)c1ccccc1Cl)c1ccc(-c2noc(C(F)(F)F)n2)s1 (stereo not drawn) [Example 214, N-((4-(2-chlorobenzoyl)morpholin-3-yl)methyl)-5-(5-(trifluoromethyl)-1,2,4-oxadiazol-3-yl)thiophene-2-carboxamide] | 96%
17 | O=C(NCC1COCCN1C(=O)c1cccc(Cl)c1)c1ccc(-c2noc(C(F)(F)F)n2)s1 (stereo not drawn) [Example 215, N-((4-(3-chlorobenzoyl)morpholin-3-yl)methyl)-5-(5-(trifluoromethyl)-1,2,4-oxadiazol-3-yl)thiophene-2-carboxamide] | 94%
18 | O=C(NCC1COCCN1C(=O)c1ccc(Cl)cc1)c1ccc(-c2noc(C(F)(F)F)n2)s1 (stereo not drawn) [Example 216, N-((4-(4-chlorobenzoyl)morpholin-3-yl)methyl)-5-(5-(trifluoromethyl)-1,2,4-oxadiazol-3-yl)thiophene-2-carboxamide] | 93%
19 | N#Cc1ccccc1C(=O)N1CCOCC1CNC(=O)c1ccc(-c2noc(C(F)(F)F)n2)s1 (stereo not drawn) [Example 217, N-((4-(2-cyanobenzoyl)morpholin-3-yl)methyl)-5-(5-(trifluoromethyl)-1,2,4-oxadiazol-3-yl)thiophene-2-carboxamide] | 94%
20 | N#Cc1cccc(C(=O)N2CCOCC2CNC(=O)c2ccc(-c3noc(C(F)(F)F)n3)s2)c1 (stereo not drawn) [Example 218, N-((4-(3-cyanobenzoyl)morpholin-3-yl)methyl)-5-(5-(trifluoromethyl)-1,2,4-oxadiazol-3-yl)thiophene-2-carboxamide] | 91%
21 | N#Cc1ccc(C(=O)N2CCOCC2CNC(=O)c2ccc(-c3noc(C(F)(F)F)n3)s2)cc1 (stereo not drawn) [Example 219, N-((4-(4-cyanobenzoyl)morpholin-3-yl)methyl)-5-(5-(trifluoromethyl)-1,2,4-oxadiazol-3-yl)thiophene-2-carboxamide] | 90%
22 | O=C(NCC1COCCN1C(=O)c1ccccc1N1CCOCC1)c1ccc(-c2noc(C(F)(F)F)n2)s1 (stereo not drawn) [Example 220, N-((4-(2-(morpholin-4-yl)benzoyl)morpholin-3-yl)methyl)-5-(5-(trifluoromethyl)-1,2,4-oxadiazol-3-yl)thiophene-2-carboxamide] | 94%
23 | O=C(NCC1COCCN1C(=O)c1ccccc1-c1ccccc1)c1ccc(-c2noc(C(F)(F)F)n2)s1 (stereo not drawn) [Example 221, N-((4-(biphenyl-2-ylcarbonyl)morpholin-3-yl)methyl)-5-(5-(trifluoromethyl)-1,2,4-oxadiazol-3-yl)thiophene-2-carboxamide] | 91%
24 | O=C(NCC1COCCN1C(=O)c1ccc(-c2ccccc2)cc1)c1ccc(-c2noc(C(F)(F)F)n2)s1 (stereo not drawn) [Example 223, N-((4-(biphenyl-4-ylcarbonyl)morpholin-3-yl)methyl)-5-(5-(trifluoromethyl)-1,2,4-oxadiazol-3-yl)thiophene-2-carboxamide] | 93%
